Assay results from ChEMBL document CHEMBL4265999, “Design, Synthesis, and Characterization of Novel Small Molecules as Broad Range Antischistosomal Agents” (ACS Med Chem Lett, 2018).

Experiments:
[1] = test system: Schistosoma mansoni; test: Antischistosomal activity against Schistosoma mansoni infected in golden syrian hamster assessed as worm killing at 143 uM pretreated for 45 mins followed by compound washout measured after 14 days; assay type: functional
[2] = test system: Schistosoma japonicum; test: Antischistosomal activity against Schistosoma japonicum infected in golden syrian hamster assessed as worm killing at 143 uM pretreated for 45 mins followed by compound washout measured after 14 days; assay type: functional
[3] = test system: Schistosoma haematobium; test: Antischistosomal activity against Schistosoma haematobium infected in golden syrian hamster assessed as worm killing at 143 uM pretreated for 45 mins followed by compound washout measured after 14 days; assay type: functional
[4] = Dissociation constant, pKa of the compound; assay type: physicochemical
[5] = Lipophilicity, log D of the compound; assay type: physicochemical; conditions: octanol/water

Row | Structure (SMILES) | Activity [1] | Activity [3] [%] | further results
1 | O=[N+]([O-])c1cc(NC2CCN(Cc3ccccc3C(F)(F)F)CC2)ccc1CO | 20% |  | 
2 | O=[N+]([O-])c1cc(NC2CCN(Cc3ccccc3F)C2)ccc1CO (stereo not given) | 30% |  | 
3 | O=[N+]([O-])c1cc(NC2CCN(CCc3ccccc3)C2)ccc1CO (stereo not given) | 7% |  | 
4 | O=[N+]([O-])c1cc(NC2CCN(Cc3ccc(OC(F)(F)F)cc3)C2)ccc1CO (stereo not given) | 87% | 40 | Activity [2]: 0%
5 | O=[N+]([O-])c1cc(NC2CCN(Cc3ccc(C(F)(F)F)cc3)C2)ccc1CO (stereo not given) | 100% | 10 | 
6 | O=[N+]([O-])c1cc(NC2CCCNC2)ccc1CO (stereo not given) | 50% |  | 
7 | O=[N+]([O-])c1cc(NC2CCN(Cc3ccccc3)C2)ccc1CO (stereo not given) | 75% |  | 
8 | Cn1cncc1CN1CCCC(Nc2ccc(CO)c([N+](=O)[O-])c2)C1 (stereo not given) | 20% |  | 
9 | O=[N+]([O-])c1cc(NC2CCCN(Cc3cccc(C(F)(F)F)c3)C2)ccc1CO (stereo not given) | 100% | 2 | Activity [2]: 2%
10 | O=[N+]([O-])c1cc(NC2CCN(Cc3ccccc3OC(F)(F)F)C2)ccc1CO (stereo not given) | 100% | <40 | 
11 | O=[N+]([O-])c1cc(NC2CCCN(Cc3ccccc3OC(F)(F)F)C2)ccc1CO (stereo not given) | 84% | <40 | 
12 | O=[N+]([O-])c1cc(NC2CCCN(Cc3ccccn3)C2)ccc1CO (stereo not given) | 0% |  | 
13 | COc1ccccc1CN1CCC(Nc2ccc(CO)c([N+](=O)[O-])c2)C1 (stereo not given) | 7% |  | 
14 | O=[N+]([O-])c1cc(NC2CCNC2)ccc1CO (stereo not given) | 10% |  | 
15 | O=[N+]([O-])c1cc(NC2CCCN(Cc3ccc(OC(F)(F)F)cc3)C2)ccc1CO (stereo not given) | 40% | 43 | Activity [2]: 10%
16 | CC(C)NCC1CCc2cc(CO)c([N+](=O)[O-])cc2N1 (stereo not given) [OXAMNIQUINE] | 50 - 85% | 0 | Activity [2]: 0%

Row | Structure (SMILES) | Activity [1] | Activity [3] [%] | further results
17 | CC(C)N1CCCC(Nc2ccc(CO)c([N+](=O)[O-])c2)C1 (stereo not given) | 10% |  | 
18 | O=[N+]([O-])c1cc(NC2CCN(Cc3cccc(OC(F)(F)F)c3)C2)ccc1CO (stereo not given) | 60% |  | 
19 | O=[N+]([O-])c1cc(NC2CCN(Cc3ccc(Cl)cc3Cl)C2)ccc1CO (stereo not given) | 17% |  | 
20 | CC(C)N1CCC(Nc2ccc(CO)c([N+](=O)[O-])c2)C1 (stereo not given) | 40% |  | 
21 | O=[N+]([O-])c1cc(NC2CCCN(Cc3ccccc3C(F)(F)F)C2)ccc1CO (stereo not given) | 75% | 40 | pKa [4]: 5.9; Activity [2]: 83%; logD [5]: 3.27
22 | O=[N+]([O-])c1ccc(CN2CCC(Nc3ccc(CO)c([N+](=O)[O-])c3)C2)cc1 (stereo not given) | 17% |  | 
23 | O=[N+]([O-])c1cc(NC2CCN(Cc3ccccn3)C2)ccc1CO (stereo not given) | 0% |  | 
24 | O=[N+]([O-])c1cc(NC2CCN(Cc3cccc(C(F)(F)F)c3)C2)ccc1CO (stereo not given) | 93% | 8 | 
25 | O=[N+]([O-])c1cc(NC2CCN(Cc3ccc(OC(F)(F)F)cc3)CC2)ccc1CO | 97% | 14 | 
26 | O=[N+]([O-])c1cc(NC2CCN(Cc3c[nH]c4ccccc34)C2)ccc1CO (stereo not given) | 85% |  | 
27 | O=[N+]([O-])c1cc(NC2CCCN(CCc3ccccc3)C2)ccc1CO (stereo not given) | 40% |  | 
28 | O=[N+]([O-])c1cc(NC2CCCN(Cc3c[nH]c4ccccc34)C2)ccc1CO (stereo not given) | 26% |  | 
29 | Cn1cncc1CN1CCC(Nc2ccc(CO)c([N+](=O)[O-])c2)C1 (stereo not given) | 0% |  | 
30 | O=[N+]([O-])c1cc(NC2CCN(Cc3ccccc3C(F)(F)F)C2)ccc1CO (stereo not given) | 27% |  | 
31 | O=[N+]([O-])c1cc(NC2CCCN(Cc3ccccc3)C2)ccc1CO (stereo not given) | 60% |  | 
32 | O=[N+]([O-])c1cc(NC2CCN(Cc3ccc(C(F)(F)F)cc3)CC2)ccc1CO | 81% | 0 | 
